Assay results taken from ChEMBL document CHEMBL5370560, “Isolation of Anti-SARS-CoV-2 Natural Products Extracted from Mentha canadensis and the Semi-synthesis of Antiviral Derivatives” (J Nat Prod, 2023).
pIC50: −log10 of the molar value.

Biological target: Replicase polyprotein 1ab (Severe acute respiratory syndrome coronavirus 2, UniProt P0DTD1)
Test: Inhibition of recombinant SARS-CoV-2 Delta 3CL protease using Dabcyl-KTSAVLQSGFRKME-Edans as substrate preincubated for 30 mins followed by substrate addition and measured for 1 hr by fluorescence based microplate reader analysis

SMILES	pIC50
CCCCCCCCCCCCNC(=O)[C@@H](Cc1ccc(O)c(O)c1)OC(=O)/C=C/c1ccc(O)c(O)c1	4.39
CCc1cccc(NC(=O)[C@@H](Cc2ccc(O)c(O)c2)OC(=O)/C=C/c2ccc(O)c(O)c2)c1	4.34
